In ChEMBL document CHEMBL1136802, “Receptor-guided alignment-based comparative 3D-QSAR studies of benzylidene malonitrile tyrphostins as EGFR and HER-2 kinase inhibitors” (J Med Chem, 2003):

How the values were obtained:
[1] = biological target: T1, Receptor tyrosine-protein kinase erbB-2 (Homo sapiens, UniProt P04626); assay: Inhibitory activity tested against protein kinase HER-2
[2] = biological target: T2, Epidermal growth factor receptor (Homo sapiens, UniProt P00533); assay: Inhibitory activity against epidermal growth factor receptor (EGFR)
T2 sequence (P00533 whole entry): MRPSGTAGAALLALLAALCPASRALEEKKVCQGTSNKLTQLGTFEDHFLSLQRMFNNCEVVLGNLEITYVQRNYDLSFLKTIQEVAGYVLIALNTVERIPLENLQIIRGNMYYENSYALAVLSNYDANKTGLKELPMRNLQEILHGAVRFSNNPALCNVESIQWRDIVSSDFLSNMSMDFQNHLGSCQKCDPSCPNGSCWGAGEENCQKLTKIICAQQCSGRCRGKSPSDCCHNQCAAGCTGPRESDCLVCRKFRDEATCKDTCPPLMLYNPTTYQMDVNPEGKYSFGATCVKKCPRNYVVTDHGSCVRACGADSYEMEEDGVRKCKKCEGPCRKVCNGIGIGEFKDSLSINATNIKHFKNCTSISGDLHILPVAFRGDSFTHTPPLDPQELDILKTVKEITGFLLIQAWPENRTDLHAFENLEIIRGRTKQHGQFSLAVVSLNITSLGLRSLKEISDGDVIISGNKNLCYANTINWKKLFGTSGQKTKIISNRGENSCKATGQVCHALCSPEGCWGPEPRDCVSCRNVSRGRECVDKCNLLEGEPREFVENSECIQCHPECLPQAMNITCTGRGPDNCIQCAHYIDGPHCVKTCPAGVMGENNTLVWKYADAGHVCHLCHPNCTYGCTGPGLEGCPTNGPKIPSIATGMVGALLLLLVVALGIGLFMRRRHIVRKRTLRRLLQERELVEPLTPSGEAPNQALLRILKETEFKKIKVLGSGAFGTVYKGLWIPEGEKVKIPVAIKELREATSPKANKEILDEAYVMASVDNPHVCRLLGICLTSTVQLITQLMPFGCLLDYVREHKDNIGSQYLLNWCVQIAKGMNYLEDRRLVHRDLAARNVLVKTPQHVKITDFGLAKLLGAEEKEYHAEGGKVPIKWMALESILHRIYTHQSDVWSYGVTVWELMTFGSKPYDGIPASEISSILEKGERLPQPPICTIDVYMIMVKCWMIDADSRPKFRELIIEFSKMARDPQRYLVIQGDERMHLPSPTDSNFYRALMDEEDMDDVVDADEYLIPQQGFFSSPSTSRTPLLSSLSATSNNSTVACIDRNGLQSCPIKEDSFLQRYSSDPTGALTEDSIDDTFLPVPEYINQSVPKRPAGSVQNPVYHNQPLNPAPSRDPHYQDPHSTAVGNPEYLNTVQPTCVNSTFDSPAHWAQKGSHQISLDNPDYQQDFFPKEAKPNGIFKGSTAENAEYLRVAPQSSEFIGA

[3] = biological target: T1, Receptor tyrosine-protein kinase erbB-2; assay: Inhibition of HER-2 ErbB2 receptor
[4] = biological target: T2, Epidermal growth factor receptor; assay: Inhibition of epidermal growth factor receptor (EGFR)

T1 sequence (P04626 whole entry): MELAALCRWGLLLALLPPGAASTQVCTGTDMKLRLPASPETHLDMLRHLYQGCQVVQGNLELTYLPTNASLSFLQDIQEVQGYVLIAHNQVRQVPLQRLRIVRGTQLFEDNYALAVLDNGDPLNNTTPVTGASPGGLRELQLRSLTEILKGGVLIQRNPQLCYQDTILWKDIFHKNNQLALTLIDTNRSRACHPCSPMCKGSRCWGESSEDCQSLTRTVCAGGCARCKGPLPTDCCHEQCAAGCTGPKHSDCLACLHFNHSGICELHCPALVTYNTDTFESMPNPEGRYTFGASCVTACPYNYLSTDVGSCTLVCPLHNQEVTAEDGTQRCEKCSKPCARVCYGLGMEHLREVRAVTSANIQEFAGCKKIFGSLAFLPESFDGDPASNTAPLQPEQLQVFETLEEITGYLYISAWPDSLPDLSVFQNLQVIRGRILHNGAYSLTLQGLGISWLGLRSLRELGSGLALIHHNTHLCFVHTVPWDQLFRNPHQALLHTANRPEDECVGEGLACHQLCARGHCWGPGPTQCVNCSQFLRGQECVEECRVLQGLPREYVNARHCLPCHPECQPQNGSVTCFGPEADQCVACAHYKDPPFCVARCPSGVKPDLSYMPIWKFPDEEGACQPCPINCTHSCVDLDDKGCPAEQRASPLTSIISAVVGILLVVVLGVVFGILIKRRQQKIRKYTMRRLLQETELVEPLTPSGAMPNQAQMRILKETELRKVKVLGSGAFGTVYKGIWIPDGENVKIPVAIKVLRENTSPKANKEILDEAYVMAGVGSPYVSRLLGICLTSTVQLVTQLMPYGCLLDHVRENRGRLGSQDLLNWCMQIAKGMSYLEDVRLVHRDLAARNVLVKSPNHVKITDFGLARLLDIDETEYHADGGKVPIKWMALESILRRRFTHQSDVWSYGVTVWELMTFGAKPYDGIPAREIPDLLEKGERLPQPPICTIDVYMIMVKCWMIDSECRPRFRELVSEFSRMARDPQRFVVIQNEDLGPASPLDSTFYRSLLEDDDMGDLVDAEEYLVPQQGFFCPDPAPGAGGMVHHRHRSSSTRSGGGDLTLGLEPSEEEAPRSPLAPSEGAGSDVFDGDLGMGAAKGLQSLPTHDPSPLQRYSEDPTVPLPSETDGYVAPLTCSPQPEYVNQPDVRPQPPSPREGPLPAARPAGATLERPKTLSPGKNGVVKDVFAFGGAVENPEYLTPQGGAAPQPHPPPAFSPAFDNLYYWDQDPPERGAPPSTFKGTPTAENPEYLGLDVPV

| SMILES | IC50 [1] [µM] | IC50 [2] [µM] | other results |
| --- | --- | --- | --- |
| N#C/C(=C\c1ccc(O)c(O)c1)C(=O)NCCCCc1ccccc1 | 501 |  |  |
| N#C/C(=C\c1ccc(O)c(O)c1)C(=O)c1ccc(O)c(O)c1 | 17 |  |  |
| Cc1cc(C=C(C#N)C#N)cc(O)c1O | 58.9 |  |  |
| COc1ccc(NC(=O)/C(C#N)=C/c2ccc(O)c(O)c2)c(OC)c1 | 166 |  |  |
| CCOC(=O)C(Cc1ccccc1)NC(=O)/C(C#N)=C/c1ccc(O)c(O)c1 (centres undefined) | 331 |  |  |
| N#C/C(=C\c1cc(O)c(O)c(CSCc2ccccc2)c1)C(N)=O | 1.02 |  |  |
| COc1cc(C=C(C#N)C#N)cc(CSc2ccccc2C(=O)O)c1O | 10 |  |  |
| COc1cc(/C=C(/C#N)C(N)=O)cc(CSCc2ccc(Cl)cc2)c1O | 2 | 15.8 |  |
| COc1cc(C=C(C#N)C#N)cc(CS(=O)(=O)c2ccc(C)cc2)c1O | 17.4 |  |  |
| COc1cc(/C=C(\C#N)C(N)=O)cc(CSc2nc3cc(Cl)ccc3s2)c1O | 15.1 | 83.2 |  |
| COc1cc(C=C(C#N)C#N)cc(SCC(=O)O)c1O | 4.57 | 53.7 |  |
| CC(C)(C)Oc1cc(/C=C(\C#N)C(=N)S)cc(C(C)(C)C)c1O | 1 | 501 |  |
| COc1cc(/C=C(\C#N)C(N)=O)cc(SCCC(=O)O)c1O |  |  | IC50 [3]: 91.2 µM |
| N#C/C(=C\c1ccc(O)c(O)c1)C(=O)NCc1ccc(O)cc1 | 2.88 | 3.02 |  |
| Cc1cc(C)c(C(=O)/C(C#N)=C/c2ccc(O)c(O)c2)c(C)c1 |  | 19.1 |  |
| COc1cc(/C=C(\C#N)C(N)=O)cc(CSc2nc3ccccc3o2)c1O | 1.51 |  |  |

| SMILES | IC50 [1] [µM] | IC50 [2] [µM] | other results |
| --- | --- | --- | --- |
| COc1cc(/C=C(\C#N)C(N)=O)cc(CSCc2ccccc2)c1O | 10 |  |  |
| COc1cc(/C=C(\C#N)C(N)=O)cc(CSc2nc3ccccc3[nH]2)c1O | 6.17 |  |  |
| COc1cc(/C=C(\C#N)C(N)=O)cc(CSc2ccccc2NC(C)=O)c1O | 3.31 |  |  |
| N#C/C(=C\c1ccc(O)c(O)c1)C(=O)NCCc1ccccc1 |  | 0.617 |  |
| COc1cc(/C=C(\C#N)C(N)=O)cc(CSc2ccccn2)c1O | 0.708 |  |  |
| COc1cc(/C=C(\C#N)C(N)=O)cc(CSc2ccccc2C(=O)O)c1O | 0.447 |  |  |
| COc1cc(/C=C(\C#N)C(N)=O)cc(CSc2cccc3ccccc23)c1O | 4.57 | 1.7 |  |
| COc1cc(/C=C(\C#N)C(N)=O)cc(CSCc2ccccc2Cl)c1O | 0.251 |  |  |
| COc1cc(/C=C(\C#N)C(N)=O)cc(CSc2ccc(C)cc2)c1O | 1.66 |  |  |
| Cc1cc(C)c(NC(=O)/C(C#N)=C/c2ccc(O)c(O)c2)c(C)c1 | 20.9 | 19.1 |  |
| COc1cc(/C=C(\C#N)C(N)=O)cc(SCCCC(=O)O)c1O |  | 47.9 |  |
| COc1cc(C=C(C#N)C#N)cc(C)c1O | 112 |  |  |
| COc1cc(/C=C(\C#N)C(N)=O)cc(CSc2ccccc2)c1O | 0.129 |  |  |
| CCOc1ccc2sc(SCc3cc(/C=C(\C#N)C(N)=O)cc(OC)c3O)nc2c1 |  |  | IC50 [4]: 166 µM |
| COc1cc(C=C(C#N)C#N)cc(CSc2ccccc2)c1O | 2.51 |  |  |
| N#C/C(=C\c1ccc(O)c(O)c1)C(=O)c1ccc(F)cc1 | 12.9 |  |  |
